Measured values taken from patent US4175081A, “5-Substituted thiadiazole ureas” (priority 1977, dated 1979).

Columns and labels:
Bean (BN) [1] = test: Post-emergence herbicide test; type: in vivo, Phaseolus vulgaris var. Black Valentine; settings: Phaseolus vulgaris, post-emergence, 336 h; 8 lb/acre; two weeks after treatment
How it was run: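 Snapbean (Phaseolus vulgaris var. Black Valentine) was tested post-emergence. Four seeds were sown in 3' plastic pots of potting soil at a depth equal to the seed diameter, then sub-irrigated in greenhouse trays. Planting dates were staggered so plants were sprayed once primary leaves had expanded, with the growing point at the primary leaf nodes.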

Crabgrass (CG) [2] = test: Post-emergence herbicide test; type: in vivo, Digitaria sanquinalis; settings: Digitaria sanguinalis, post-emergence, 336 h; 8 lb/acre; two weeks after treatment
How it was run: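 Crabgrass (Digitaria sanquinalis) was surface seeded individually in 3' plastic pots of potting soil, covered with screened soil, and watered by sub-irrigation in greenhouse trays. Planting was staggered so seedlings reached the target stage together. Post-emergence sprays were applied in a hood with a removable belt and fixed nozzle, and control was visually rated two weeks after treatment.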

Turnip (TP) [3] = test: Pre-emergence herbicide test; type: in vivo, Brassica sp.; settings: Brassica rapa, pre-emergence, 336 h; 8 lb/acre; two weeks after treatment
How it was run: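 Turnip (Brassica sp.) seeds were surface sown in 3' plastic pots of potting soil, covered with a thin layer of screened soil, and sub-irrigated in greenhouse trays. Pots were seeded one day ahead of treatment, sprayed pre-emergence under a hood with a fixed nozzle and moving belt, then kept in the greenhouse.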

Johnson grass (JG) [4] = test: Pre-emergence herbicide test; type: in vivo, Sorgum helepense; settings: Sorghum halepense, 336 h, 8 lb/acre, two weeks after treatment
How it was run: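 Pots seeded one day before spraying; compound applied pre-emergence at 8 lbs/acre (or 4 lbs/acre) in 38 gallons/acre spray volume. Sub-irrigated in greenhouse; injury/control rated visually two weeks after treatment.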

Cotton (CT) [5] = test: Post-emergence herbicide test; type: in vivo, Gossypium hirsutum var. DPL smooth leaf; settings: Gossypium hirsutum, post-emergence, 336 h; 8 lb/acre; two weeks after treatment
How it was run: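 Cotton (Gossypium hirsutum var. DPL smooth leaf) was grown in 3' plastic pots of potting soil, four seeds per pot, planted at a depth equal to the seed diameter and watered by sub-irrigation. At the stage of expanded cotyledons with the first true leaf 1' long, plants were sprayed post-emergence in a hood with a fixed nozzle over a moving belt. Percent control was rated visually two weeks later.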

Johnson grass (JG) [6] = test: Post-emergence herbicide test; type: in vivo, Sorgum helepense; settings: Sorghum halepense, 336 h, 8 lb/acre, two weeks after treatment
How it was run: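 Greenhouse pot-grown seedlings sprayed post-emergence at 8 lbs compound per acre (some at 4 lbs/acre) in 38 gallons per acre spray volume. Sub-irrigated thereafter. Injury/control rated visually two weeks after treatment.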

Turnip (TP) [7] = test: Post-emergence herbicide test; type: in vivo, Brassica sp.; settings: Brassica rapa, post-emergence, 336 h; 8 lb/acre; two weeks after treatment
How it was run: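 A greenhouse post-emergence herbicide test on turnip. Seeds were sown on the surface of potting soil in 3' plastic pots, lightly covered with screened soil and watered from below. Planting was timed so seedlings had 1 or 2 true leaves above the cotyledons at spraying, done in a hood with a fixed nozzle. Control or injury was scored by eye after two weeks.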

Corn (CN) [8] = test: Post-emergence herbicide test; type: in vivo; settings: Zea mays, 336 h, 8 lb/acre, two weeks after treatment
How it was run: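 Greenhouse seedlings grown in potting soil and sprayed post-emergence at 8 lbs compound/acre (formulations also made for 4 lbs/acre) in 38 gallons/acre spray volume. Watering by sub-irrigation only. Injury or control rated visually two weeks after treatment.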

Barnyard grass (BG) [9] = test: Pre-emergence herbicide test; type: in vivo; settings: Echinochloa crus-galli, 336 h, 8 lb/acre, two weeks after treatment
How it was run: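 Barnyard grass surface-seeded in potting soil and sprayed pre-emergence one day after seeding, at 8 or 4 lb compound/acre in 38 gal/acre spray volume. Pots kept in greenhouse with sub-irrigation only; injury or control rated visually two weeks after treatment.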

Amaranth pigweed (PW) [10] = test: Post-emergence herbicide test; type: in vivo, Amaranthus retroflexus; settings: 336 h, 8 lb/acre, two weeks after treatment
How it was run: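 Pot-grown pigweed was sprayed post-emergence at the 1–2 true-leaf stage with compound at rates equivalent to 8 lbs per acre (formulations also prepared for 4 lbs/acre) in 38 gallons per acre, using a hood with fixed nozzle. Plants were sub-irrigated in the greenhouse, and injury or control was rated visually two weeks after treatment.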

Crabgrass (CG) [11] = test: Pre-emergence herbicide test; type: in vivo, Digitaria sanquinalis; settings: Digitaria sanguinalis, pre-emergence, 336 h; 8 lb/acre; two weeks after treatment
How it was run: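 Crabgrass (Digitaria sanquinalis) was surface seeded in 3' plastic pots of potting soil, covered with screened soil, and watered by sub-irrigation in greenhouse trays. Pots were seeded one day before spraying in a hood with a moving belt and fixed nozzle. Plants stayed in the greenhouse on sub-irrigation, and pre-emergence control was rated visually two weeks after treatment.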

Amaranth pigweed (PW) [12] = test: Pre-emergence herbicide test; type: in vivo, Amaranthus retroflexus; settings: 336 h, 8 lb/acre, two weeks after treatment
How it was run: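 Pigweed was surface-seeded in potted soil one day before spraying at 8 lbs compound per acre, or 4 lbs/acre, in 38 gallons per acre. Pots were kept in the greenhouse with sub-irrigation only; injury or control was rated visually two weeks after treatment.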

[13] = tested on: Yellow foxtail grass (YF); test: Post-emergence herbicide test; type: in vivo, Setaria glauca; settings: Setaria, 336 h, 8 lb/acre, two weeks after treatment
How it was run: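 Potted seedlings grown in greenhouse, planting staggered to reach the target stage together, then sprayed post-emergence at 8 lbs actual compound/acre in 38 gallons/acre (4 lbs/acre formulations also prepared). Sub-irrigated afterwards. Injury or control rated visually two weeks after treatment.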

[14] = tested on: Yellow foxtail grass (YF); test: Pre-emergence herbicide test; type: in vivo, Setaria glauca; settings: Setaria, 336 h, 8 lb/acre, two weeks after treatment
Method: Yellow foxtail grass (YF)--Setaria glauca
All crop and weed species were planted individually in 3' plastic pots containing potting soil. Four seeds each of corn, cotton, and snapbeans were seeded to a depth equal to the diameter of the seed. All other species were surface seeded and sprinkled with screened soil in an amount sufficient to cover the seed. Immediately after planting, all pots were watered by sub-irrigation in greenhouse trays. Pots for the pre-emergence phase were seeded one day before treatment.
Compounds were tested at rates of application equivalent to 8 lbs. of actual compound per acre in a spray volume of 38 gallons per acre. Spray hood constants required to deliver the above volume are as follows:
Formulations for spray applications were prepared in 50 ml volumes with the following three components:
Formulations for the 4 lbs/acre rate were prepared by adjusting the amount of active ingredient accordingly.
Spray applications were made in a hood containing a removable belt and fixed spray nozzle. For passage through the spray hood, one pot of each specie (pre-emergence phase) was placed on the rear half of the flat. Treatments were removed to the greenhouse after spraying. Watering during the observation period was done only by sub-irrigation.
Two weeks after treatment, pre- and post-emergence injury or control was visually rated, and the results were as shown in the following tables. Pre-emergence data are provided in TABLE III and post-emergence data are provided in TABLE IV, for compounds having the formula illustrated in TABLE I. Correspondingly, pre-emergence and post-emergence data, respectively, are set forth in TABLES V AND VI, for compounds having the formula illustrated in TABLE II.

Cotton (CT) [15] = test: Pre-emergence herbicide test; type: in vivo, Gossypium hirsutum var. DPL smooth leaf; settings: Gossypium hirsutum, 336 h, 8 lb/acre, two weeks after treatment
How it was run: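 Crop and weed species seeded one day before treatment, then sprayed pre-emergence at 8 lbs actual compound per acre (also 4 lbs/acre formulations) in 38 gallons per acre. Pots kept in greenhouse with sub-irrigation only; injury or control visually rated two weeks after treatment.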

Bean (BN) [16] = test: Pre-emergence herbicide test; type: in vivo, Phaseolus vulgaris var. Black Valentine; settings: Phaseolus vulgaris, 336 h, 8 lb/acre, two weeks after treatment
How it was run: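 Black Valentine bean was seeded in potting soil one day before spraying. Compound was applied pre-emergence at 8 lbs/acre (also 4 lbs/acre) in 38 gallons per acre. Plants were sub-irrigated and injury or control was rated visually after two weeks.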

Barnyard grass (BG) [17] = test: Post-emergence herbicide test; type: in vivo; settings: Echinochloa crus-galli, 336 h, 8 lb/acre, two weeks after treatment
How it was run: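 Greenhouse pot-grown barnyard grass seedlings sprayed post-emergence at 8 lbs active compound per acre (some at 4 lbs/acre) in 38 gallons per acre, then sub-irrigated. Injury or control rated visually two weeks after treatment.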

Corn (CN) [18] = test: Pre-emergence herbicide test; type: in vivo; settings: Zea mays, 336 h, 8 lb/acre, two weeks after treatment
How it was run: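 Four corn seeds per pot, sown at seed-diameter depth one day before spraying, got soil surface treatment at 8 lbs/acre (4 lbs/acre formulations also prepared) in 38 gallons/acre. Pots were greenhouse-held with sub-irrigation only. Injury or control was scored visually two weeks after treatment.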

| Compound | pest or weed control at 8966.8 g/ha (Bean (BN) [1]) [%] | pest or weed control at 8966.8 g/ha (Crabgrass (CG) [2]) [%] | pest or weed control at 8966.8 g/ha (Turnip (TP) [3]) [%] | pest or weed control at 8966.8 g/ha (Johnson grass (JG) [4]) [%] | pest or weed control at 8966.8 g/ha (Cotton (CT) [5]) [%] | pest or weed control at 8966.8 g/ha (Johnson grass (JG) [6]) [%] | pest or weed control at 8966.8 g/ha (Turnip (TP) [7]) [%] | pest or weed control at 8966.8 g/ha (Corn (CN) [8]) [%] | pest or weed control at 8966.8 g/ha (Barnyard grass (BG) [9]) [%] | pest or weed control at 8966.8 g/ha (Amaranth pigweed (PW) [10]) [%] | pest or weed control at 8966.8 g/ha (Crabgrass (CG) [11]) [%] | pest or weed control at 8966.8 g/ha (Amaranth pigweed (PW) [12]) [%] | pest or weed control at 8966.8 g/ha [13] [%] | pest or weed control at 8966.8 g/ha [14] [%] | pest or weed control at 8966.8 g/ha (Cotton (CT) [15]) [%] | pest or weed control at 8966.8 g/ha (Bean (BN) [16]) [%] | pest or weed control at 8966.8 g/ha (Barnyard grass (BG) [17]) [%] | pest or weed control at 8966.8 g/ha (Corn (CN) [18]) [%] |
| --- | --- | --- | --- | --- | --- | --- | --- | --- | --- | --- | --- | --- | --- | --- | --- | --- | --- | --- |
| CCCNC(=O)Nc1nnc(SC)s1 [Example 29] | 100 | 30 | 0 | 10 | 60 | 20 | 40 | 20 | 10 | 40 | 20 | 10 | 20 | 10 | 30 | 80 | 20 | 30 |
| C=CCNC(=O)Nc1nnc(SC)s1 [Example 31] | 100 | 30 | 30 | 20 | 100 | 30 | 50 | 20 | 30 | 90 | 70 | 20 | 30 | 70 | 30 | 80 | 20 | 10 |
| CCSc1nnc(NC(=O)NC)s1 [Example 32] | 100 | 100 | 90 | 70 | 100 | 90 | 90 | 60 | 90 | 100 | 90 | 100 | 90 | 90 | 50 | 80 | 100 | 70 |
